According to US20120264928A1, “THERAPEUTIC PHARMACEUTICAL AGENT FOR DISEASES ASSOCIATED WITH DECREASE IN FUNCTION OF GNE PROTEIN, FOOD COMPOSITION, AND FOOD ADDITIVE” (JAPAN HEALTH SCIENCES FOUNDATION, priority 2009, published 2012):

Legend:
Assay type in all cases: in vivo
DMRV model mice [1] = assay: Hanging test; conditions: 20 mg/kg body weight/day in drinking water; vs placebo group
Protocol: (§1) 20 mg/kg body weight/day of ManNAc (N=6), NeuAc (N=5), or sialyllactose (N=7) dissolved in drinking water was administered to the DMRV model mice between 11- to 15-week old and 56- to 58-week old for 43 to 45 weeks. 40 mg (N=5) or 400 mg/kg body weight/day (N=4) of Ac4ManNAc dissolved in drinking water was administered to the DMRV model mice of the same ages for 43 to 47 weeks. Drinking water free of the pharmaceutical agents was supplied to mice in a placebo group.
(§2) During the administration of the pharmaceutical agent, the measurement of the body weight, the determination of the survival rate, blood collection (0, 25, and 49 days after the start of administration, and thereafter at intervals of 28 days), and a hanging test (0 and 49 days after the start of administration, and thereafter at intervals of 56 days) were performed at regular intervals. Survivors after the administration (ManNAc-treated group: N=5, NeuAc-treated group: N=5, sialyllactose group: N=6) were subjected to a treadmill test. A muscle tissue was then excised and was subjected to a muscle contraction test, the measurement of the amount of NeuAc, and pathological observation.
A wire net having a 6-mm lattice pattern made of wires having a diameter of approximately 0.5 mm was placed on a tube having a height of 50 cm. A mouse was made to hang on the wire net, and the time elapsed before the mouse fell down was measured. The time was measured three times for each mouse.

DMRV model mice [2] = assay: Treadmill test, motor ability test; conditions: vs placebo group
Protocol: as §1, §2
(§3) In order to familiarize a mouse with the apparatus, training was started one week prior to testing. In this period, the mouse was made to run on a slope of 7 degrees at a velocity in the range of 5 to 15 m/min for 30 minutes every day for 7 days. As a motor ability test, the velocity was increased by 10 m/min per minute from the initial velocity of 20 m/min. The accumulated running distance up to the point where the mouse could not run anymore was measured. As an endurance test, a mouse was made to run on a slope of 7 degrees at a velocity of 20 m/min for 60 minutes. The mouse was then made to run for another 3 minutes, during which the times of the electrical stimulation given to the mouse by a stimulation grid disposed at the end of the running lane were measured.

DMRV model mice [3] = assay: Muscle contraction test; conditions: vs placebo group
Protocol: as §1, §2
After pentobarbital sodium (40 mg/kg body weight) was intraperitoneally administered to a mouse for anesthesia, a continuous muscle tissue of the tibialis anterior muscle and the gastrocnemius muscle was isolated. A terminal tendon of the isolated muscle tissue and the tibia were tied with a thread. The ends of the thread were connected at right angles to a tube for hanging a thread (a muscle length controller) and an isotonic transducer (TB-651T (for the gastrocnemius muscle) or TB-653TD-112S (for the tibialis anterior muscle), Nihon Kohden Corp.). The muscle tissue was placed in a lactated Ringer's solution (95% O2, 5% CO2). An electrostimulator (SEN-3301, Nihon Kohden Corp.) and an amplifier (PP-106H, Nihon Kohden Corp.) were used to expand the muscle tissue while providing 400 μs twitch stimulation. A length (L0) at which the maximum contractile force was produced and the contractile force (isometric contractile force: Pt) at that length were measured. While the muscle tissue was held at the length (L0) at which the contractile force was produced, the electrical stimulation was […] to 3 ms. The maximum contractile force (P0) was determined while 10- to 1000-Hz repetitive stimulation was provided 300 to 600 times at intervals of 2 minutes or more. After the measurement, the average cross-sectional area (CSA: muscle weight/L0) of the muscle tissue was calculated.

DMRV model mice [4] = assay: Amount of NeuAc in muscle tissue of treated DMRV model mice; conditions: vs placebo group
Protocol: DMRV model mice were GNE^(−/−)hGNED176V-Tg described in Japanese Unexamined Patent Application Publication No. 2007-312641. Healthy litters having no GNE gene mutation were used as controls. The mice in the present example freely take water and feed and ingest 14 mg/kg body weight/day of N-acetylneuraminic acid compound on average.
In the case that the sample was cultured cells, the cells were washed with PBS three times, and 400 p. 1 of 50 mM sulfuric acid was added to the cells. The cells were incubated at 80° C. for 60 minutes and were hydrolyzed to release NeuAc and NeuGc. In the case that the sample was a piece of tissue, the tissue was frozen, was pulverized with an air hammer, and was homogenized in a KCl-tris solution. The precipitate was again washed with the KCl-tris solution and was hydrolyzed in 50 mM sulfuric acid at 80° C. for one hour to release NeuAc and NeuGc. 400 μl of 7 mmol 1,2-diamino-4,5-methylenedioxybenzene, dihydrochloride (MDB, Dojindo Laboratories) solution (15.8 mg MDB, 48.8 mg Na2S2O4, and 735 μl 2-mercaptoethanol were dissolved in distilled water so as to prepare a 10-ml solution) was added to the sample containing free NeuAc and NeuGc and was allowed to react at 60° C. for 2.5 hours. The fluorescent derivative thus prepared was analyzed with HPLC (JASCO Corp.) using 0.05 to 5 nmol/μl Neu5Ac and Neu5Gc standards. The amount of protein from the tissue was measured with a Bio-Rad Protein Assay kit (Bio-Rad Laboratories).
as §1, §2

DMRV model mice [5] = assay: Blood creatine kinase activity; conditions: 20 mg/kg body weight/day in drinking water; vs placebo group
Protocol: as §1, §2
During the administration of the pharmaceutical agent, blood was collected from a tail of a mouse at regular intervals. The blood was centrifuged to prepare blood serum. Blood creatine activity was measured with a Determiner CPK-L kit (Kyowa Medex Co., Ltd.). The blood serum was electrophoresed using a Titan Gel Isoenzyme kit (Helen Laboratories) to identify creatine kinase. It is known that creatine kinase moves into blood when strenuous exercise or myopathy damages muscle fibers.

DMRV model mice [6] = assay: Number of formed rimmed vacuoles and amyloid-positive cells; conditions: 20 mg/kg body weight/day in drinking water; vs placebo group
Protocol: as §1, §2
In six H-E stained pathological sections having a thickness of 10 μm prepared at intervals of 100 μm, the number of rimmed vacuoles observed over the cross section of the muscular tissue was counted. In order to count the number of amyloid-positive protein deposits, the number of cells having deposits labeled with an anti-amyloid antibody (6E10) observed over the cross section of the muscular tissue was counted in six sections having a thickness of 10 μm prepared at intervals of 100 μm.

DMRV model mice [7] = assay: Treadmill test, endurance test; conditions: vs placebo group
Protocol: as §1, §2, §3

[8] = 20 mg/kg body weight/day in drinking water

SMILES | hanging time (DMRV model mice [1]) | accumulated running distance (DMRV model mice [2]; [8]) | Pt per cross-sectional area of the muscle (DMRV model mice [3]; [8]) | cross-sectional area of the gastrocnemius muscle (DMRV model mice [3]; [8]) | specific contractile force of the gastrocnemius muscle (P0 per cross-sectional area of the muscle) (DMRV model mice [3]; [8]) | amount of NeuAc in the muscle tissue (DMRV model mice [4]; [8]) | blood creatine kinase activity (DMRV model mice [5]) | number of amyloid positive cells (DMRV model mice [6]) | number of rimmed vacuoles (DMRV model mice [6]) | times of electrical stimulation for 3 minutes (DMRV model mice [7]; [8]) | accumulated running distance (DMRV model mice [2]; 400 mg/kg) | specific contractile force of the gastrocnemius muscle (DMRV model mice [3]; 40 mg/kg) | Pt per cross-sectional area of the muscle (DMRV model mice [3]; 400 mg/kg) | specific contractile force of the gastrocnemius muscle (DMRV model mice [3]; 400 mg/kg) | amount of NeuAc in the muscle tissue (DMRV model mice [4]; 400 mg/kg) | times of electrical stimulation for 3 minutes (DMRV model mice [7]; 40 mg/kg) | times of electrical stimulation for 3 minutes (DMRV model mice [7]; 400 mg/kg)
CC(=O)N[C@@H]1C(O)O[C@H](CO)[C@@H](O)[C@@H]1O (stereo partly shown) [ManNAc, N-acetylmannosamine, reference compound] | longer | significantly higher | significantly higher | significantly higher | significantly higher | significantly higher | significantly lower | significantly lower | significantly lower | significantly lower |  |  |  |  |  |  | 
CC(=O)N[C@H]1[C@H]([C@H](O)[C@H](O)CO)OC(O)(C(=O)O)C[C@@H]1O (stereo partly shown) [NeuAc, N-acetylneuraminic acid] | longer | significantly higher | significantly higher | significantly higher | significantly higher | significantly higher | significantly lower | significantly lower | significantly lower | significantly lower |  |  |  |  |  |  | 
CC(=O)N[C@H]1[C@H]([C@H](O)[C@H](O)CO)O[C@@](O[C@H]2[C@@H](O)[C@@H](CO)O[C@@H](O[C@H]3[C@H](O)[C@@H](O)C(O)O[C@@H]3CO)[C@@H]2O)(C(=O)O)C[C@@H]1O (stereo partly shown) [sialyllactose, NeuAcα2-3Galβ1-4Glc] | longer | significantly higher | significantly higher | significantly higher | significantly higher | significantly higher | significantly lower | significantly lower | significantly lower | significantly lower |  |  |  |  |  |  | 
CC(=O)N[C@@H]1C(OC(C)=O)O[C@H](COC(C)=O)[C@@H](OC(C)=O)[C@@H]1OC(C)=O (stereo partly shown) [Ac4ManNAc, Tetra-O-acetyl-N-acetylmannosamine] |  |  |  |  |  |  |  |  |  |  | significantly higher | significantly higher | significantly higher | significantly higher | significantly higher | significantly lower | significantly lower
